Experiment in all cases: NCI-60 cell line screen, 48 h
The test system of experiment [1] is HCC 2998.
The test system of experiment [2] is U-251.
For experiment [3], the system named is SF-268.
In experiment [4] the test system is HCT-15.
Experiment [5] has as its system CAKI-1.
Experiment [6] has as its system UO-31.
For experiment [7], the system named is OVCAR-4.
The test system of experiment [8] is KM12.
Experiment [9] concerns ACHN.
Experiment [10] deals with OVCAR-3.
For experiment [11], the system named is NCI-H23.
Experiment [12] concerns 786-0.
Experiment [13] concerns SK-MEL-5.
Experiment [14] has as its system HOP-92.
Experiment [15] concerns NCI-H522.
Experiment [16] relates to HL-60.
Experiment [17] deals with NCI-H226.

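Each compound was tested at five concentrations against cells in 96-well plates for 48 hours. Abbreviation: GI50, concentration required for 50% inhibition of growth.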 The source made the active and inactive calls. No stated cut-off is given here; in the data, active = GI50 up to about 1.1 µM and inactive = higher. A value given as a limit tells only on which side of the number the result lay.

In the case of `CCOc1ccc(NC2=NC(=O)C(CC(=O)Nc3ccc(Cl)cc3Cl)S2)cc1` (centres undefined), the GI50 in experiment [1] was > 100 µM (inactive); in [2] it was > 100 µM (inactive); in experiment [3], > 100 µM (inactive); in experiment [4], over 100 µM; in experiment [5], > 100 µM (inactive); in experiment [6], > 100 µM (inactive). Moreover, the GI50 in [7], in experiment [8], in experiment [9], in experiment [10], in experiment [11] and in experiment [12] was > 100 µM (inactive) in each case. Moreover, in [13], the GI50 is > 100 µM (inactive).
On to `O=[N+]([O-])c1cccc(C2=NN(c3ccccc3)C3c4cc(Br)ccc4OCC23)c1` (centres undefined), for which the GI50 is 12 µM (inactive) in experiment [14]; > 100 µM (inactive) in experiment [1]; > 100 µM (inactive) in experiment [2]; > 100 µM (inactive) in experiment [3]; 17.3 µM (inactive) in [6]; 81.8 µM (inactive) in [8]. In addition, the GI50 in experiment [9] is > 100 µM (inactive); in experiment [10] it was > 100 µM (inactive); in [11], > 100 µM (inactive); in [12], > 100 µM (inactive); in experiment [15], 97.5 µM (inactive); in experiment [13], > 100 µM (inactive). Further, the GI50 in experiment [16] is > 100 µM (inactive).
As to `NC(=O)c1cc(C2OC(CO)C(O)C2O)nn1-c1ccc([N+](=O)[O-])cc1` (centres undefined), the GI50 in [14] is > 100 µM (inactive); in [1] it was > 100 µM (inactive); in experiment [2], > 100 µM (inactive); in [3] it was > 100 µM (inactive); in experiment [4] it was over 100 µM; in experiment [5], > 100 µM (inactive). In addition, the GI50 in experiment [6], in [7], in experiment [8], in experiment [9], in [10] and in [11] was > 100 µM (inactive) in each case. Further, the GI50 is > 10 µM (inactive) in [12], > 100 µM (inactive) in experiment [13], > 100 µM (inactive) in experiment [17] and > 100 µM (inactive) in experiment [16].
As to `C[C@@H]1O[C@@H](O[C@H]2[C@H](Oc3cc(O)c4c(=O)cc(-c5ccc(O)cc5)oc4c3)O[C@H](CO)[C@@H](O)[C@@H]2O)[C@H](O)[C@H](O)[C@H]1O` [RHOIFOLIN], the GI50 was > 100 µM (inactive) in experiment [14]; > 100 µM (inactive) in experiment [2]; > 100 µM (inactive) in experiment [3]; over 100 µM in [4]; > 100 µM (inactive) in experiment [5]; > 100 µM (inactive) in experiment [6]. In addition, the GI50 in experiment [7], in [8], in experiment [9], in [10], in [11] and in [12] was > 100 µM (inactive) throughout. Moreover, the GI50 in experiment [15], in experiment [13] and in [16] was > 100 µM (inactive) throughout.
Regarding `COC(=O)[C@@]12CC(C(C)C)[C@H]3CC(C(=O)C=C1OC)[C@H]32` (some centres undefined), the GI50 in experiment [14] was > 100 µM (inactive); in experiment [1], > 100 µM (inactive); in experiment [2], > 100 µM (inactive); in experiment [3] it was > 100 µM (inactive); in [4], over 100 µM; in [5] it was > 100 µM (inactive). Further, the GI50 in [7], in experiment [8], in [9], in experiment [10], in experiment [11] and in experiment [12] was > 100 µM (inactive) throughout. Moreover, the GI50 in experiment [13] and in experiment [16] was > 100 µM (inactive) in each case.
On to `O=c1c2ccccc2oc2ccccc12.Oc1cccc2cccnc12`, for which the GI50 is 1.88 µM (inactive) in [1]; 2.75 µM (inactive) in [3]; 3.9 µM (inactive) in experiment [5]; 2.31 µM (inactive) in [6]; 5.89 µM (inactive) in experiment [7]; 5.3 µM (inactive) in [8]. The GI50 is 3.12 µM (inactive) in experiment [9]; 5.53 µM (inactive) in [10]; 1.66 µM (inactive) in experiment [12]; 12.9 µM (inactive) in experiment [15]; 1.95 µM (inactive) in experiment [13]; 0.67 µM (active) in experiment [16].
Turning to `CCN1C(=O)C/C(=C\C(C)=O)Nc2ccccc21`, the GI50 in [14], in experiment [1], in experiment [2], in experiment [3], in experiment [5] and in experiment [6] was > 100 µM (inactive) throughout. In addition, the GI50 in experiment [7], in experiment [8], in experiment [10], in experiment [11], in experiment [12] and in experiment [15] was > 100 µM (inactive) each time. Besides, the GI50 in [13] was 10 µM (inactive); in experiment [17] it was > 100 µM (inactive).
`COC(=O)C(C(=O)C(=O)Nc1nc2ccc(OC)cc2s1)c1cnc2ccccc2n1` (centres undefined): the GI50 was > 100 µM (inactive) in [14]; > 100 µM (inactive) in [1]; > 100 µM (inactive) in [2]; > 100 µM (inactive) in experiment [3]; over 100 µM in experiment [4]; > 100 µM (inactive) in experiment [5]. The GI50 in experiment [6], in experiment [7], in [8], in experiment [9], in experiment [10] and in [11] was > 100 µM (inactive) throughout. Besides, the GI50 in experiment [12], in [15], in experiment [13] and in experiment [17] was > 100 µM (inactive) throughout.
As to `Oc1ccccc1/C=N/c1ccccc1/N=C/c1ccccc1O`, the GI50 was > 100 µM (inactive) in experiment [1]; 30.9 µM (inactive) in [2]; 88.1 µM (inactive) in experiment [3]; 79.4 µM in experiment [4]; > 100 µM (inactive) in experiment [8]; 30.2 µM (inactive) in [9]. Further, the GI50 in experiment [10] was 36.6 µM (inactive); in experiment [11] it was 38.3 µM (inactive); in [12], > 100 µM (inactive); in [15] it was 16.7 µM (inactive); in [13], 86.1 µM (inactive); in experiment [17], 65.6 µM (inactive). For the same compound, the GI50 in [16] was 15 µM (inactive).
As to `N=CCCN(CCC=N)c1ccc(/C=C2\CN(NC(=O)c3ccc(Cl)cc3)C(c3ccccc3)=N2)cc1`, the GI50 in [14] was > 100 µM (inactive); in experiment [1], > 100 µM (inactive); in experiment [2], 25.8 µM (inactive); in experiment [3] it was > 100 µM (inactive); in experiment [4] it was over 100 µM; in experiment [5], > 100 µM (inactive). For the same compound, the GI50 in experiment [6], in experiment [7], in experiment [8], in experiment [9], in experiment [10] and in [11] was > 100 µM (inactive) throughout. Besides, the GI50 in [12] is 90.2 µM (inactive); in experiment [13] it was > 100 µM (inactive); in experiment [17], > 100 µM (inactive); in [16], > 100 µM (inactive).
Turning to `O=C(O)c1ccc(/N=N/c2cc(S(=O)(=O)O)c3cccnc3c2O)cc1`, the GI50 in experiment [14] is > 100 µM (inactive); in experiment [1], > 100 µM (inactive); in experiment [2], > 100 µM (inactive); in experiment [3], > 100 µM (inactive); in [4], over 100 µM; in experiment [5], > 100 µM (inactive). The GI50 in [6], in [7], in [8], in experiment [9], in experiment [10] and in [11] was > 100 µM (inactive) each time. Also, the GI50 in experiment [12], in [13], in [17] and in experiment [16] was > 100 µM (inactive) in each case.
On to `COc1cc2ccc(CC(=O)O)cc2cc1OC`, for which the GI50 in experiment [1] was > 100 µM (inactive); in experiment [2], > 100 µM (inactive); in experiment [3] it was > 100 µM (inactive); in experiment [4] it was over 100 µM; in experiment [5], > 100 µM (inactive); in experiment [6] it was > 100 µM (inactive). Also, the GI50 in experiment [7], in experiment [8], in experiment [9], in experiment [10], in [11] and in experiment [12] was > 100 µM (inactive) in each case. In addition, the GI50 in experiment [15], in experiment [13], in experiment [17] and in experiment [16] was > 100 µM (inactive) in each case.
As to `CCCCOC(=O)NC(=O)c1cn(CCSCCOC(=O)NCCCCCCNC(=O)OCCSCCn2cc(C(=O)NC(=O)OCCCC)c(=O)[nH]c2=O)c(=O)[nH]c1=O`, the GI50 in [14] is 21.5 µM (inactive); in experiment [1], > 100 µM (inactive); in [2], 23.4 µM (inactive); in experiment [3], > 100 µM (inactive); in experiment [4], over 100 µM; in experiment [6], > 100 µM (inactive). Besides, the GI50 is > 100 µM (inactive) in experiment [7]; > 100 µM (inactive) in experiment [8]; > 100 µM (inactive) in experiment [9]; > 100 µM (inactive) in [10]; 27.4 µM (inactive) in experiment [11]; 32.3 µM (inactive) in [12]. For the same compound, the results for the GI50 in experiment [15], in experiment [13] and in experiment [16] were 32.6 µM (inactive), > 100 µM (inactive) and > 100 µM (inactive), respectively.

The values above are taken from ChEMBL document CHEMBL1201862, “PubChem BioAssay data set” (2004).
